Data from ChEMBL document CHEMBL1149235, “Tetrahydronaphthalene-derived amino alcohols and amino ketones as potent and selective inhibitors of the delayed rectifier potassium current IKs” (Bioorg Med Chem Lett, 2004).

How the values were obtained:
[1] = Inhibitory activity against slow component of delayed rectifier potassium current IKs in guinea pig ventricular myocytes; assay type: cell-based, Cavia porcellus, Ventricular myocyte
[2] = Inhibition of rapid component of delayed rectifier potassium current IKr in guinea pig ventricular myocytes; assay type: cell-based, Cavia porcellus, Ventricular myocyte
[3] = Cavia porcellus, Ventricular myocyte

Compound	IC50 [1, 3] [nM]	IC50 ([1]; ventricular myocyte) [nM]	other results
COc1ccc2c(c1)CCC(CN1CCC(c3ccccc3)CC1)C2=O (stereo unspecified)	5000		IC50 [2, 3]: 4000 nM
O=C1c2ccc(OCc3ccccn3)cc2CCC1CCN1CCC(c2ccccc2)CC1 (stereo unspecified)	1300		
O[C@H]1c2ccc(OCc3ccccc3-c3ccccc3)cc2CC[C@H]1CCN1CCC(c2ccccc2)CC1	390		
O=C1c2ccc(OCc3ccncc3)cc2CCC1CCN1CCC(c2ccccc2)CC1 (stereo unspecified)	200		
O=C1c2ccc(OCc3ccccc3)cc2CCC1CC(=O)N1CCC(c2ccccc2)CC1 (stereo unspecified)	> 30000		
OC1c2ccc(OCc3ccccc3)cc2CCC1CCN1CCC(c2ccccc2)CC1 (single isomer, unassigned)		1300	IC50 ([2]; ventricular myocyte): 110 nM
COc1ccc2c(c1)CCC(CCN1CCC(c3ccccc3)CC1)C2=O (single isomer, unassigned)		1700	
O[C@@H]1c2ccc(OCc3ccccc3-c3ccccc3)cc2CC[C@H]1CCN1CCC(c2ccccc2)CC1 (stereo in doubt)		1000	
OC1c2ccc(OCc3ccccc3)cc2CCC1CCN1CCC(c2ccccc2)CC1 (stereo in doubt; 7b)		150	IC50 [2, 3]: 170 nM
COc1ccc2c(c1)CCC(CCN1CCC(c3ccccc3)CC1)C2=O (stereo in doubt; 8a)		400	IC50 [2, 3]: 1700 nM
O[C@@H]1c2ccc(OCc3ccccc3-c3ccccc3)cc2CC[C@H]1CCN1CCC(c2ccccc2)CC1 (stereo in doubt; 14a)		37	

Second part, led by results:

IC50 [1, 3] [nM]	IC50 ([1]; ventricular myocyte) [nM]	Compound	other results
1500		O=C1c2ccc(Oc3ccccc3)cc2CCC1CCN1CCC(c2ccccc2)CC1 (stereo unspecified)	
2400		O=C1c2ccc(-c3ccccc3)cc2CCC1CCN1CCC(c2ccccc2)CC1 (stereo unspecified)	
470		O=C1c2ccc(OCc3cccc(-c4ccccc4)c3)cc2CCC1CCN1CCC(c2ccccc2)CC1 (stereo unspecified)	
380		O=C1c2ccc(OCc3cccnc3)cc2CCC1CCN1CCC(c2ccccc2)CC1 (stereo unspecified)	
1000		O=C1c2ccc(OCc3ccc(-c4ccccc4)cc3)cc2CCC1CCN1CCC(c2ccccc2)CC1 (stereo unspecified)	
	340	O=C1c2ccc(OCc3ccccc3-c3ccccc3)cc2CCC1CCN1CCC(c2ccccc2)CC1 (single isomer, unassigned)	IC50 ([2]; ventricular myocyte): 1600 nM
	69	O=C1c2ccc(OCc3ccccc3)cc2CCC1CCN1CCC(c2ccccc2)CC1 (stereo in doubt; 8b)	IC50 ([2]; ventricular myocyte): 160 nM
	30	O=C1c2ccc(OCc3ccccc3-c3ccccc3)cc2CCC1CCN1CCC(c2ccccc2)CC1 (stereo in doubt; 10d)	IC50 ([2]; ventricular myocyte): 260 nM
